Experiments:
[1] = molecular target: T1, HiBiT-BRM fusion protein in stable HeLa cell line (Homo sapiens, UniProt P51531); experiment: HiBiT-BRM cell-based degradation assay (Nano-Glo HiBiT Lytic Detection, 24 h); parameters: DC50: scale not given here; settings: HeLa HiBiT-BRM cells; for DC50: read-out: BRM HiBit Degradation IC50; for BRM HiBit Degradation Maximum (%): top dose 30 μM
T1 construct: expressed in transfected cells
Procedure, shortened: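 Stable HiBiT-BRM HeLa cells were treated with 10-point 3-fold serial dilutions (30 μM final top dose, duplicate) for 24 h, then lysed with LgBiT-containing detection reagent and luminescence read. Degradation % was normalised to DMSO (high control) and 2 μM reference BRM/BRG1 degrader (low control).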

[2] = molecular target: T2, HiBit-BRG1 fusion protein in stable HeLa cell line expressing HiBit-BRG1 and LgBit (Homo sapiens, UniProt P51532); experiment: HiBiT-BRG1 cell-based degradation assay (Nano-Glo HiBiT, 24 h); settings: HeLa HiBit-BRG1/LgBit cells; for DC50: read-out: BRMG1 HiBit Degradation IC50; for Dmax: top dose 30 μM, read-out: BRG1 HiBit Degradation Maximum (%)
T2 construct: expressed in transfected cells
T2 sequence (P51532 whole entry, the tested form may be a part): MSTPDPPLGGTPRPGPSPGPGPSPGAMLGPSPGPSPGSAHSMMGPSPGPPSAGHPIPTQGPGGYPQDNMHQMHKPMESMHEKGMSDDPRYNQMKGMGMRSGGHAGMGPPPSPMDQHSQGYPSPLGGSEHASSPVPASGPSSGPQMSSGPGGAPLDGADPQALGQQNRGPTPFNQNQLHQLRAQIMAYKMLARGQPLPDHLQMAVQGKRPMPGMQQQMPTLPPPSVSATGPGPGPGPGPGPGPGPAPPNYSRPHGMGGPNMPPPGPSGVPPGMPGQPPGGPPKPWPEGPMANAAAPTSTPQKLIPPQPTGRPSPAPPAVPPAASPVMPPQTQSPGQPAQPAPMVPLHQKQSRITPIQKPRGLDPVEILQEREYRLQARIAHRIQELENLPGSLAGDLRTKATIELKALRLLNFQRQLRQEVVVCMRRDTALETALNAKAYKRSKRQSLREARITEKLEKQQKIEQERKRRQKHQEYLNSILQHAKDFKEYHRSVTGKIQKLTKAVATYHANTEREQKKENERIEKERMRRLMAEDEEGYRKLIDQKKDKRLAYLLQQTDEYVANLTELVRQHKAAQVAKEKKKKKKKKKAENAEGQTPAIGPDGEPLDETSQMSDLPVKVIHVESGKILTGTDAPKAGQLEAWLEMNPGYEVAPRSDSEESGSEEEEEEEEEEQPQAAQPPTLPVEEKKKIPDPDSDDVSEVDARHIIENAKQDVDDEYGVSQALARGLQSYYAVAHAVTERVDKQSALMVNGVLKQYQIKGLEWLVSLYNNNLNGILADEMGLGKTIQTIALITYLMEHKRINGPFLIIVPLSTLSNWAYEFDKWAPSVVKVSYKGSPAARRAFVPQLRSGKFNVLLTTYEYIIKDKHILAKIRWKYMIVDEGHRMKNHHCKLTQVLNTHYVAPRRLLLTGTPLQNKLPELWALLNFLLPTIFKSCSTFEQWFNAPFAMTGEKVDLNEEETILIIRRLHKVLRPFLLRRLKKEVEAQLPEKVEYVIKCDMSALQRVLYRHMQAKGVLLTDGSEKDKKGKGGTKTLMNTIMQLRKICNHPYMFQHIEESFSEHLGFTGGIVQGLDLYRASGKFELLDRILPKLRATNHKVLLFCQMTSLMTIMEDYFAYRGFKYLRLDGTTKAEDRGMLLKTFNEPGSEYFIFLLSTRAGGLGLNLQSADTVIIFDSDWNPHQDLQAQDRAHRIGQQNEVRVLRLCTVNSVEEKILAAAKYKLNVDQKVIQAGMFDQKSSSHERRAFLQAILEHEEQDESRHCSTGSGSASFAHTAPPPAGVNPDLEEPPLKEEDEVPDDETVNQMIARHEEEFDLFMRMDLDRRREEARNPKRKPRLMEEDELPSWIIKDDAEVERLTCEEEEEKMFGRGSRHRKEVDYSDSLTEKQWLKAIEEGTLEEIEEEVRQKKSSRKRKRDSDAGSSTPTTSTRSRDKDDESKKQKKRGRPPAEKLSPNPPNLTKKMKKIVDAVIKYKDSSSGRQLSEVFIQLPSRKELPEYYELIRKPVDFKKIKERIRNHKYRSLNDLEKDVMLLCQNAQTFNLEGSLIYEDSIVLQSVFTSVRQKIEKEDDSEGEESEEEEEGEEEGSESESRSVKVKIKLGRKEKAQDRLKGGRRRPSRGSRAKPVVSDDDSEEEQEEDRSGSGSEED
Procedure, shortened: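 Stable HeLa line co-expressing HiBiT-BRG1 and LgBiT, compound-treated 24 h; luminescence read after Nano-Glo HiBiT lytic reagent. % degradation normalised between DMSO (high control) and 2 μM reference BRM/BRG1 degrader (low control).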

T1 sequence (P51531 whole entry, the tested form may be a part): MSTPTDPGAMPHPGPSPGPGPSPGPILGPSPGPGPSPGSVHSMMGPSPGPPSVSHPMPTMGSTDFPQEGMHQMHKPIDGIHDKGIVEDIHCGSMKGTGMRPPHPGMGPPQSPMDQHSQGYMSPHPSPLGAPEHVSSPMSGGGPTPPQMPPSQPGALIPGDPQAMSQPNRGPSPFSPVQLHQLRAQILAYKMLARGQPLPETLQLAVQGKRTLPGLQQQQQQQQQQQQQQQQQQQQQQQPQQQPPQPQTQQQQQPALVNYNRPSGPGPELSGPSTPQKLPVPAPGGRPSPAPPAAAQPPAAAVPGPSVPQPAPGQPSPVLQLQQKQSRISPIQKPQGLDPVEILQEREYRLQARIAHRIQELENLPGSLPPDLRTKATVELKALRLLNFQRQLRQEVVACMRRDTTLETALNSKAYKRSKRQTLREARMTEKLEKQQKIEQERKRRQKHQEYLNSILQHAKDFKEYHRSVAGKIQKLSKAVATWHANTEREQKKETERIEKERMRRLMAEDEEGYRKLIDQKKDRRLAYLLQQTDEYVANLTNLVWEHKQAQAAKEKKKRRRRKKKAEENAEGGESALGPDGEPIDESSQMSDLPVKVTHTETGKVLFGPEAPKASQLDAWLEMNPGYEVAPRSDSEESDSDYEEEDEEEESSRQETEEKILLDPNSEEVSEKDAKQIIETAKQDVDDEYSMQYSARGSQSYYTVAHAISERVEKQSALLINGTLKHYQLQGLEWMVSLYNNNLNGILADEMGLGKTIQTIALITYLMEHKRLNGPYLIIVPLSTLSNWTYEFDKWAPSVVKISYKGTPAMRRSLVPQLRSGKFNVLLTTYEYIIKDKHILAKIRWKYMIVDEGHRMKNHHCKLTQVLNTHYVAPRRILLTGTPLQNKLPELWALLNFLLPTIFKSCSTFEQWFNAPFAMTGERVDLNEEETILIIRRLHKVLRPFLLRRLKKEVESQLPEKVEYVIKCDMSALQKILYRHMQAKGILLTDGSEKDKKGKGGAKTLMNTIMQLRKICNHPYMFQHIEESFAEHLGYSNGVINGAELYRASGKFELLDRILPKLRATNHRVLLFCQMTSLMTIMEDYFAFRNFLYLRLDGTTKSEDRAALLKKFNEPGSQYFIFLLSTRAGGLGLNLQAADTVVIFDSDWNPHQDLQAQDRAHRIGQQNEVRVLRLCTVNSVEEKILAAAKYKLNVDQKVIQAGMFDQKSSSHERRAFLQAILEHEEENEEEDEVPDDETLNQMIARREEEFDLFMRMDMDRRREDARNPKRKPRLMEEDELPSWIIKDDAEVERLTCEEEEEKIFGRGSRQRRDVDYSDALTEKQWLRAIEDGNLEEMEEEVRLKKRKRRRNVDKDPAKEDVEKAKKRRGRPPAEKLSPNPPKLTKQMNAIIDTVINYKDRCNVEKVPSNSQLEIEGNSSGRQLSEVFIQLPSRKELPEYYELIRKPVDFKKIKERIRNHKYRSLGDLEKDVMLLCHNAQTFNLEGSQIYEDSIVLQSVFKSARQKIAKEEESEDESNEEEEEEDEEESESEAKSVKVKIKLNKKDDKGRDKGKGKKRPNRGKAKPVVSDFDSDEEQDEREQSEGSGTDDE

Row | Structure (SMILES) | DC50 [1] | BRM HiBit Degradation Maximum (%) [1] | DC50 [2] | Dmax [2]
1 | Cc1ncsc1-c1ccc([C@H](C)NC(=O)[C@@H]2C[C@@H](O)CN2C(=O)[C@@H](c2cc(N3CCC4(CN(c5ccc6cc(-c7ccccc7O)nnc6c5)C4)C3)no2)C(C)C)cc1 [Compound 130, (2S,4R)-4-hydroxy-1-((R)-2-(3-(2-(3-(2-hydroxyphenyl)cinnolin-7-yl)-2,6-diazaspiro[3.4]octan-6-yl)isoxazol-5-yl)-3-methylbutanoyl)-N-((S)-1-(4-(4-methylthiazol-5-yl)phenyl)ethyl)pyrrolidine-2-carboxamide] | < 10 nM | A (“A” indicates maximum degradation ≥75%) | < 10 nM | > 75%
2 | Cc1ncsc1-c1ccc([C@H](C)NC(=O)[C@@H]2C[C@@H](O)CN2C(=O)[C@@H](c2cc(N3C[C@H]4CN(c5ccc6cc(-c7ccccc7O)nnc6c5)C[C@H]4C3)no2)C(C)C)cc1 [Compound 131, (2S,4R)-4-hydroxy-1-((R)-2-(3-((3aR,6aS)-5-(3-(2-hydroxyphenyl)cinnolin-7-yl)hexahydropyrrolo[3,4-c]pyrrol-2(1H)-yl)isoxazol-5-yl)-3-methylbutanoyl)-N-((S)-1-(4-(4-methylthiazol-5-yl)phenyl)ethyl)pyrrolidine-2-carboxamide] | < 10 nM | A (“A” indicates maximum degradation ≥75%) |  | > 50%
3 | Cc1ncsc1-c1ccc([C@H](C)NC(=O)[C@@H]2C[C@@H](O)CN2C(=O)[C@@H](c2cc(N3CC4(CCN(c5ccc6cc(-c7ccccc7O)nnc6c5)C4)C3)no2)C(C)C)cc1 [Compound 132, (2S,4R)-4-hydroxy-1-((R)-2-(3-(6-(3-(2-hydroxyphenyl)cinnolin-7-yl)-2,6-diazaspiro[3.4]octan-2-yl)isoxazol-5-yl)-3-methylbutanoyl)-N-((S)-1-(4-(4-methylthiazol-5-yl)phenyl)ethyl)pyrrolidine-2-carboxamide] | < 10 nM | A (“A” indicates maximum degradation ≥75%) | < 10 nM | > 75%
4 | CC(C)[C@@H](C(=O)N1C[C@H](O)C[C@H]1C(=O)N[C@@H](C)c1ccccc1)c1cc(-c2ccc3nnc(-c4ccccc4O)cc3c2)no1 [Compound 133, (2S,4R)-4-hydroxy-1-((R)-2-(3-(3-(2-hydroxyphenyl)cinnolin-6-yl)isoxazol-5-yl)-3-methylbutanoyl)-N-((S)-1-phenylethyl)pyrrolidine-2-carboxamide] | < 10 nM | A (“A” indicates maximum degradation ≥75%) | > 10 nM | > 75%
5 | CC(C)[C@@H](C(=O)N1C[C@H](O)C[C@H]1C(=O)N[C@@H](C)c1ccc(F)cc1)c1cc(-c2ccc3nnc(-c4ccccc4O)cc3c2)no1 [Compound 134, (2S,4R)-N-((S)-1-(4-fluorophenyl)ethyl)-4-hydroxy-1-((R)-2-(3-(3-(2-hydroxyphenyl)cinnolin-6-yl)isoxazol-5-yl)-3-methylbutanoyl)pyrrolidine-2-carboxamide] | < 10 nM | A (“A” indicates maximum degradation ≥75%) | > 10 nM | > 75%
6 | Cc1ncsc1-c1ccc([C@H](C)NC(=O)[C@@H]2C[C@@H](O)CN2C(=O)[C@@H](c2cc(N3CCN([C@@H]4CCN(Cc5ccc6nnc(-c7ccccc7O)cc6c5)CC4(F)F)CC3)no2)C(C)C)cc1 [Compound 136, (2S,4R)-1-((R)-2-(3-(4-((R)-3,3-difluoro-1-((3-(2-hydroxyphenyl)cinnolin-6-yl)methyl)piperidin-4-yl)piperazin-1-yl)isoxazol-5-yl)-3-methylbutanoyl)-4-hydroxy-N-((S)-1-(4-(4-methylthiazol-5-yl)phenyl)ethyl)pyrrolidine-2-carboxamide] | < 10 nM | A (“A” indicates maximum degradation ≥75%) | < 10 nM | > 75%
7 | Cc1ncsc1-c1ccc([C@H](C)NC(=O)[C@@H]2C[C@@H](O)CN2C(=O)[C@@H](c2cc(N3CCN([C@H]4CCN(Cc5ccc6nnc(-c7ccccc7O)cc6c5)CC4(F)F)CC3)no2)C(C)C)cc1 [Compound 137, (2S,4R)-1-((R)-2-(3-(4-((S)-3,3-difluoro-1-((3-(2-hydroxyphenyl)cinnolin-6-yl)methyl)piperidin-4-yl)piperazin-1-yl)isoxazol-5-yl)-3-methylbutanoyl)-4-hydroxy-N-((S)-1-(4-(4-methylthiazol-5-yl)phenyl)ethyl)pyrrolidine-2-carboxamide] | < 10 nM | A (“A” indicates maximum degradation ≥75%) | < 10 nM | > 75%
8 | COC[C@H]1CN(c2cc([C@H](C(=O)N3C[C@H](O)C[C@H]3C(=O)N[C@@H](C)c3ccc(-c4scnc4C)cc3)C(C)C)on2)CCN1c1ccc2nnc(-c3ccccc3O)cc2c1 [Compound 138, (2S,4R)-4-hydroxy-1-((R)-2-(3-((R)-4-(3-(2-hydroxyphenyl)cinnolin-6-yl)-3-(methoxymethyl)piperazin-1-yl)isoxazol-5-yl)-3-methylbutanoyl)-N-((S)-1-(4-(4-methylthiazol-5-yl)phenyl)ethyl)pyrrolidine-2-carboxamide] | < 10 nM | A (“A” indicates maximum degradation ≥75%) | > 10 nM | > 75%
9 | COC[C@H]1CN(c2cc([C@H](C(=O)N3C[C@H](O)C[C@H]3C(=O)N[C@@H](C)c3ccc(-c4scnc4C)cc3)C(C)C)on2)CCN1c1ccc2cc(-c3ccccc3O)nnc2c1 [Compound 142, (2S,4R)-4-hydroxy-1-((R)-2-(3-((R)-4-(3-(2-hydroxyphenyl)cinnolin-7-yl)-3-(methoxymethyl)piperazin-1-yl)isoxazol-5-yl)-3-methylbutanoyl)-N-((S)-1-(4-(4-methylthiazol-5-yl)phenyl)ethyl)pyrrolidine-2-carboxamide] | > 10 nM | A (“A” indicates maximum degradation ≥75%) |  | < 50%
10 | Cc1ncsc1-c1ccc([C@H](C)NC(=O)[C@@H]2C[C@@H](O)CN2C(=O)[C@@H](c2cc(-c3ccc4nnc(-c5cccc(F)c5O)cc4c3)no2)C(C)C)cc1 [Compound 143, (2S,4R)-1-((R)-2-(3-(3-(3-fluoro-2-hydroxyphenyl)cinnolin-6-yl)isoxazol-5-yl)-3-methylbutanoyl)-4-hydroxy-N-((S)-1-(4-(4-methylthiazol-5-yl)phenyl)ethyl)pyrrolidine-2-carboxamide] | < 10 nM | A (“A” indicates maximum degradation ≥75%) |  | < 50%
11 | COC[C@@H]1CN(c2cc(C(C(=O)N3C[C@H](O)C[C@H]3C(=O)N[C@@H](C)c3ccc(-c4scnc4C)cc3)C(C)C)on2)CCN1c1ccc2nnc(-c3ccccc3O)cc2c1 (stereo partly drawn) [Compound 144, (2S,4R)-4-hydroxy-1-(2-(3-((S)-4-(3-(2-hydroxyphenyl)cinnolin-6-yl)-3-(methoxymethyl)piperazin-1-yl)isoxazol-5-yl)-3-methylbutanoyl)-N-((S)-1-(4-(4-methylthiazol-5-yl)phenyl)ethyl)pyrrolidine-2-carboxamide] | < 10 nM | A (“A” indicates maximum degradation ≥75%) | > 10 nM | > 75%

From patent US20260193264A1, “BENZOYPARAZINE PYRAZINES AND THEIR USES” (FOGHORN THERAPEUTICS INC., priority 2022, published 2026)
